# Laboratory results as given in patent US10975037B2 (priority 2018, dated 2021).
# Like-named read-outs stand apart in the source and are kept apart here. Marks after values point to notes of the source that are not given here.
# How the values were obtained:
# [1] = biological target: human RORγt ligand binding domain (RORγt LBD) (Homo sapiens (Human), UniProt P51449); assay: RORγt ThermoFluor® assay (thermal shift binding)
# How it was run: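 Thermal shift with 0.065 mg/mL RORγt LBD and 60 μM 1,8-ANS in 100 mM Hepes pH 7.0, 10 mM NaCl, 2.5 mM GSH, 0.002% Tween-20.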
# full-length human RORγt = full-length human RORγt (Homo sapiens (Human), UniProt P51449); assay: RORγt (full-length human) reporter assay, conditions A or B, HEK293T cells; type: cell-based; conditions: for inhibition at 6 µM: read-out: RORγt (FL) Reporter Assay A or B, % inhibition @ 6 μM; for inhibition at 2 µM: 2 μM compound concentration; for RORγt (FL) Reporter Assay A or B, % inhibition: 3 μM compound concentration (footnote *)
# How it was run: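 After 16–20 h, dual firefly/Renilla luciferase luminescence was read. Firefly signal was normalized to DMSO and saturating reference compound, then to Renilla, and fitted for IC50; % inhibition is versus DMSO.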
# [2] = read-out: ThermoFluor® Assay, Kd
# [3] = RORγt (FL) Reporter Assay A or B, IC50, HEK293T cells
# [4] = HEK-293T, read-out: RORγt (FL) Reporter Assay A or B, % inhibition
# [5] = HEK-293T, 6 μM compound concentration
# [6] = HEK293T cells, read-out: RORγt (FL) Reporter Assay A or B, IC50
# full-length human RORγt, sequence (P51449 other isoform, or with tags, fused parts or gaps): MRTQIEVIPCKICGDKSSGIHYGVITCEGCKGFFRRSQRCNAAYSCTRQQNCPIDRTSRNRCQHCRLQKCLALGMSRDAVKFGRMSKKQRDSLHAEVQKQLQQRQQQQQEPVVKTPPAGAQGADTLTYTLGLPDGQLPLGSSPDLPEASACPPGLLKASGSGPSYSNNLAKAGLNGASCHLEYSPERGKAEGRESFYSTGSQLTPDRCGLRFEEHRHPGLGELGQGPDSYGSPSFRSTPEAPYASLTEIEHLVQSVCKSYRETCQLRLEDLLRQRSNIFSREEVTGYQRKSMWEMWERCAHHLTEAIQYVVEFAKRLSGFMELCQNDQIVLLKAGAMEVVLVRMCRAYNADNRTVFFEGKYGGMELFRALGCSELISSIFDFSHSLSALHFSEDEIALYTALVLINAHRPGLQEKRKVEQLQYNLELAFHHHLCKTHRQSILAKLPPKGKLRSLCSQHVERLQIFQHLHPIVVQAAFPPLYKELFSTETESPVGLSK
# human RORγt ligand binding domain (RORγt LBD), sequence (P51449 other isoform, or with tags, fused parts or gaps): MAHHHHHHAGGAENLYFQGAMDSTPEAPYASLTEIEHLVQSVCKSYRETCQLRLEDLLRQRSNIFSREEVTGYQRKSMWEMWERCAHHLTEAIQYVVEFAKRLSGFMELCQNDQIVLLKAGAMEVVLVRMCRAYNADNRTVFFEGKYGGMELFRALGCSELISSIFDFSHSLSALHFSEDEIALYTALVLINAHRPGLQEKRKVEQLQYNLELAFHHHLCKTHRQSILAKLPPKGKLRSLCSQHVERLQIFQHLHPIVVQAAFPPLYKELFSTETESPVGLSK
"Kd [1, 2] [nM]",IC50 (full-length human RORγt; [3]) [nM],Structure (SMILES),IC50 (full-length human RORγt; [6]) [nM],also measured
2.1,27,"CCCn1nc(C(=O)NC[C@H]2CC[C@H](S(C)(=O)=O)CC2)c(Cl)c1-c1ccc(N[C@H](C)C(F)(F)F)cc1OC [Example 30, 4-Chloro-5-(2-methoxy-4-(((R)-1,1,1-trifluoropropan-2-yl)amino)phenyl)-N-(((1r,4R)-4-(methylsulfonyl)cyclohexyl)methyl)-1-propyl-1H-pyrazole-3-carboxamide]",–,inhibition at 2 µM (full-length human RORγt; [4]): 104%
3.3,12,"CCn1nc(C(=O)NC[C@H]2CC[C@H](S(C)(=O)=O)CC2)c(Cl)c1-c1ccc(CCC(F)(F)F)cc1OC [Example 38, 4-Chloro-1-ethyl-5-(2-methoxy-4-(3,3,3-trifluoropropyl)phenyl)-N-(((1r,4r)-4-(methylsulfonyl)cyclohexyl)methyl)-1H-pyrazole-3-carboxamide]",–,inhibition at 0.67 µM (full-length human RORγt; [4]): 84%
10,38,"CCn1nc(C(=O)NC[C@]2(O)CC[C@@H](S(C)(=O)=O)CC2)c(Cl)c1-c1ccc(CCC(F)(F)F)cc1OC [Example 39, 4-Chloro-1-ethyl-N-(((1s,4s)-1-hydroxy-4-(methylsulfonyl)cyclohexyl)methyl)-5-(2-methoxy-4-(3,3,3-trifluoropropyl)phenyl)-1H-pyrazole-3-carboxamide]",–,inhibition at 6 µM (full-length human RORγt; [5]): 85%
–,4.6,"CCn1nc(C(=O)NC[C@H]2CC[C@H](S(N)(=O)=O)CC2)c(Cl)c1-c1ccc(CC(C)(C)C(F)(F)F)cc1OC(F)F [Example 51, 4-Chloro-5-(2-(difluoromethoxy)-4-(3,3,3-trifluoro-2,2-dimethylpropyl)phenyl)-1-ethyl-N-(((1r,4r)-4-sulfamoylcyclohexyl)methyl)-1H-pyrazole-3-carboxamide]",–,"Kd ([1]; ThermoFluor® Assay, Kd): 0.25 nM; inhibition at 1 µM (full-length human RORγt; HEK-293T, 1 μM compound concentration (footnote ***), read-out: RORγt (FL) Reporter Assay A or B, % inhibition): 113%"
0.7,–,"CCn1nc(C(=O)NC[C@H]2CC[C@H](S(=O)(=O)NC(C)=O)CC2)c(Cl)c1-c1ccc(CC(C)(C)C(F)(F)F)cc1OC(F)F [Example 68, N-(((1r,4r)-4-(N-Acetylsulfamoyl)cyclohexyl)methyl)-4-chloro-5-(2-(difluoromethoxy)-4-(3,3,3-trifluoro-2,2-dimethylpropyl)phenyl)-1-ethyl-1H-pyrazole-3-carboxamide]",39,"RORγt (FL) Reporter Assay A or B, % inhibition (full-length human RORγt): 97* %"
0.72,–,"CCC(=O)NS(=O)(=O)[C@H]1CC[C@H](CNC(=O)c2nn(CC)c(-c3ccc(CC(C)(C)C(F)(F)F)cc3OC(F)F)c2Cl)CC1 [Example 70, 4-Chloro-5-(2-(difluoromethoxy)-4-(3,3,3-trifluoro-2,2-dimethylpropyl)phenyl)-1-ethyl-N-(((r,4r)-4-(N-propionylsulfamoyl)cyclohexyl)methyl)-1H-pyrazole-3-carboxamide]",23,"RORγt (FL) Reporter Assay A or B, % inhibition (full-length human RORγt): 103* %"
0.23,–,"CCn1nc(C(=O)NC[C@H]2CC[C@H](S(=O)(=O)NC(=O)NC)CC2)c(Cl)c1-c1ccc(CC(C)(C)C(F)(F)F)cc1OC(F)F [Example 71, 4-Chloro-5-(2-(difluoromethoxy)-4-(3,3,3-trifluoro-2,2-dimethylpropyl)phenyl)-1-ethyl-N-(((1r,4r)-4-(N-(methylcarbamoyl)sulfamoyl)cyclohexyl)methyl)-1H-pyrazole-3-carboxamide]",13,"RORγt (FL) Reporter Assay A or B, % inhibition (full-length human RORγt): 114* %"
0.29,10,"CCn1nc(C(=O)NC[C@H]2CC[C@H](S(C)(=O)=O)CC2)c(Cl)c1-c1ccc(CC(C)C)cc1OC [Example 72, 4-Chloro-1-ethyl-5-(4-isobutyl-2-methoxyphenyl)-N-(((1r,4r)-4-(methylsulfonyl)cyclohexyl)methyl)-1H-pyrazole-3-carboxamide]",–,inhibition at 2 µM (full-length human RORγt; [4]): 67%
0.33,38,"CCn1nc(C(=O)NC[C@H]2CC[C@H](S(C)(=O)=O)CC2)c(Cl)c1-c1ccc(CCC(C)C)cc1OC [Example 74, 4-Chloro-1-ethyl-5-(4-isopentyl-2-methoxyphenyl)-N-(((1r,4r)-4-(methylsulfonyl)cyclohexyl)methyl)-1H-pyrazole-3-carboxamide]",–,"inhibition at 0.67 µM (full-length human RORγt; HEK-293T, 0.67 μM compound concentration (footnote ****), read-out: RORγt (FL) Reporter Assay A or B, % inhibition): 50%"

# Continued, compound first:
Structure (SMILES),"Kd [1, 2] [nM]",IC50 (full-length human RORγt; [3]) [nM],IC50 (full-length human RORγt; [6]) [nM],also measured
"COc1cc(N[C@H](C)C(F)(F)F)ccc1-c1c(Cl)c(C(=O)NC[C@]2(O)CC[C@@H](S(C)(=O)=O)CC2)nn1CC(C)C [Example 29, 4-Chloro-N-(((1s,4S)-1-hydroxy-4-(methylsulfonyl)cyclohexyl)methyl)-1-isobutyl-5-(2-methoxy-4-(((R)-1,1,1-trifluoropropan-2-yl)amino)phenyl)-1H-pyrazole-3-carboxamide]",8.3,61,–,inhibition at 6 µM (full-length human RORγt; HEK-293T): 108%
"CCCn1nc(C(=O)NC[C@]2(O)CC[C@@H](S(C)(=O)=O)CC2)c(Cl)c1-c1ccc(N[C@H](C)C(F)(F)F)cc1OC [Example 31, 4-Chloro-N-(((1s,4S)-1-hydroxy-4-(methylsulfonyl)cyclohexyl)methyl)-5-(2-methoxy-4-(((R)-1,1,1-trifluoropropan-2-yl)amino)phenyl)-1-propyl-1H-pyrazole-3-carboxamide]",7.2,41,–,inhibition at 6 µM (full-length human RORγt; HEK-293T): 105%
"CCn1nc(C(=O)NC[C@]2(C#N)CC[C@H](S(C)(=O)=O)CC2)c(Cl)c1-c1ccc(N[C@H](C)C(F)(F)F)cc1OC [Example 33, 4-Chloro-N-(((1r,4R)-1-cyano-4-(methylsulfonyl)cyclohexyl)methyl)-1-ethyl-5-(2-methoxy-4-(((R)-1,1,1-trifluoropropan-2-yl)amino)phenyl)-1H-pyrazole-3-carboxamide]",450,1100,–,inhibition at 6 µM (full-length human RORγt; [5]): 88%
"CCn1nc(C(=O)NC[C@]2(C(N)=O)CC[C@H](S(C)(=O)=O)CC2)c(Cl)c1-c1ccc(N[C@H](C)C(F)(F)F)cc1OC [Example 34, N-(((1r,4R)-1-carbamoyl-4-(methylsulfonyl)cyclohexyl)methyl)-4-chloro-1-ethyl-5-(2-methoxy-4-(((R)-1,1,1-trifluoropropan-2-yl)amino)phenyl)-1H-pyrazole-3-carboxamide]",3000,> 6000,–,inhibition at 6 µM (full-length human RORγt; [5]): 6%
"CCn1nc(C(=O)NC[C@]2(C(N)=O)CC[C@@H](S(C)(=O)=O)CC2)c(Cl)c1-c1ccc(N[C@H](C)C(F)(F)F)cc1OC [Example 35, N-(((1s,4S)-1-carbamoyl-4-(methylsulfonyl)cyclohexyl)methyl)-4-chloro-1-ethyl-5-(2-methoxy-4-(((R)-1,1,1-trifluoropropan-2-yl)amino)phenyl)-1H-pyrazole-3-carboxamide]",34,730,–,inhibition at 6 µM (full-length human RORγt; [5]): 102%
"CCn1nc(C(=O)NC[C@H]2CC[C@H](S(=O)(=O)NC)CC2)c(Cl)c1-c1ccc(CC(C)(C)C(F)(F)F)cc1OC(F)F [Example 50, 4-Chloro-5-(2-(difluoromethoxy)-4-(3,3,3-trifluoro-2,2-dimethylpropyl)phenyl)-1-ethyl-N-(((1r,4r)-4-(N-methylsulfamoyl)cyclohexyl)methyl)-1H-pyrazole-3-carboxamide]",0.1,–,3,–
"CCn1nc(C(=O)NC[C@H]2CC[C@H](S(=O)(=O)NC=O)CC2)c(Cl)c1-c1ccc(CC(C)(C)C(F)(F)F)cc1OC(F)F [Example 67, 4-Chloro-5-(2-(difluoromethoxy)-4-(3,3,3-trifluoro-2,2-dimethylpropyl)phenyl)-1-ethyl-N-(((1r,4r)-4-(N-formylsulfamoyl)cyclohexyl)methyl)-1H-pyrazole-3-carboxamide]",0.039,–,56,"RORγt (FL) Reporter Assay A or B, % inhibition (full-length human RORγt): 118* %"
"CCn1nc(C(=O)NC[C@H]2CC[C@H](S(=O)(=O)NC(N)=O)CC2)c(Cl)c1-c1ccc(CC(C)(C)C(F)(F)F)cc1OC(F)F [Example 69, N-(((1r,4r)-4-(N-Carbamoylsulfamoyl)cyclohexyl)methyl)-4-chloro-5-(2-(difluoromethoxy)-4-(3,3,3-trifluoro-2,2-dimethylpropyl)phenyl)-1-ethyl-1H-pyrazole-3-carboxamide]",0.29,–,51,"RORγt (FL) Reporter Assay A or B, % inhibition (full-length human RORγt): 100* %"
"CCn1nc(C(=O)NC[C@]2(O)CC[C@@H](S(C)(=O)=O)CC2)c(Cl)c1-c1ccc(CC(C)C)cc1OC [Example 73, 4-Chloro-1-ethyl-N-(((1s,4s)-1-hydroxy-4-(methylsulfonyl)cyclohexyl)methyl)-5-(4-isobutyl-2-methoxyphenyl)-1H-pyrazole-3-carboxamide]",0.63,11,–,inhibition at 2 µM (full-length human RORγt; [4]): 61%
"CCn1nc(C(=O)NC[C@]2(O)CC[C@@H](S(C)(=O)=O)CC2)c(Cl)c1-c1ccc(CCC(C)C)cc1OC [Example 75, 4-Chloro-1-ethyl-N-(((1s,4s)-1-hydroxy-4-(methylsulfonyl)cyclohexyl)methyl)-5-(4-isopentyl-2-methoxyphenyl)-1H-pyrazole-3-carboxamide]",0.88,25,–,inhibition at 2 µM (full-length human RORγt; [4]): 62%
